One substance from US20110269699A1, “CANCER THERAPY” (priority 2008, published 2011) can be followed below.

In data set [1] the test system is 229Eμ-myc/Bcl-2 lymphomas. Put plainly: In vivo therapy assay (Kaplan-Meier survival). Conditions: 5.6 mg/kg i.v. every 4 d, four doses. The arrangement: species or system C57BL/6 mice. How it is done: (§1) FIG. 4. […] C57BL/6 mice (10 mice per group) bearing (FIG. 4A) 4242Eμ-myc, (FIG. 4B) 229Eμ-myc, (FIG. 4C) 226Eμ-myc, (FIG. 4D) 102Eμ-myc, (FIG. 4E) 4242Eμ-myc/Bcl-2, (FIG. 4F) 229Eμmyc/Bcl-2, (FIG. 4G) 226Eμ-myc/Bcl-2, and (FIG. 4H) 102Eμ-myc/Bcl-2, lymphomas were treated with romidepsin or vehicle. Therapy commenced after WBC counts reached ≧13×10^3/μL. Therapy consisted of either 5.6 mg/kg romidepsin (injected i.v. every 4 d for a total of four doses) or vehicle.
(§2) For therapy experiments, Eμ-myc lymphomas were transplanted into C57BL/6 mice and treatment with romidepsin or vehicle commenced when WBC counts in the peripheral blood reached a pathologic threshold (>13×10^3/μL).
(§3) For in vivo apoptosis assays, C57BL/6 mice were injected with Eμ-myc lymphomas (5×10^5 cells per animal) and after 10 to 15 days on which lymph nodes became well-palpable romidepsin (5.6 mg/kg) was administered i.v. After the indicated time points, mice were sacrificed and cells were harvested from brachial lymph nodes for fluorescence-activated cell sorting-based assays to measure apoptotic signaling (Lindemann et al., Proc. Nat. Acad. Sci. USA 104:8071-8078, 2007). To assess therapeutic efficacy of romidepsin, C57BL/6 mice were injected with Eμ-myc lymphomas of the indicated genotypes i.v. (5×10^5 cells per animal). Peripheral WBC counts were then monitored until they exceeded 13×10^3/μL (Sysmex Hematology Analyzer K-1000) and romidepsin was administered at 5.6 mg/kg i.v. once every 4 days for a total of four injections. […] Mice in the control cohort received the corresponding amount of vehicle. Cohorts consisted of 8 to 11 mice each, 2 to 3 independently derived lymphomas per genotype. Peripheral WBC counts and body weights were recorded weekly. On signs of major distress or when lymphomas were relapsing as indicated by enlarged brachioaxial lymph nodes, mice were euthanized and a necropsy was done. For analysis of therapeutic efficacy, tumor-induced mortality “events” were recorded. Kaplan-Meier analysis was done and comparisons made using the log-rank (Mantel-Cox) test (MedCalc software version 8.0.2.0).

Another data set has as its system 226Eμ-myc lymphomas. Nature of the data set: In vivo therapy assay (Kaplan-Meier survival). The arrangement: species or system C57BL/6 mice. Conditions: 5.6 mg/kg i.v. every 4 d, four doses; vehicle 15 d; P<0.0001. The protocol: as §1, §2, §3
The test system of data set [2] is 226Eμ-myc/Bcl-2 lymphomas. Nature of the data set: In vivo therapy assay (Kaplan-Meier survival). Conditions: 5.6 mg/kg i.v. every 4 d, four doses. Details: species or system C57BL/6 mice. The protocol: as §1, §2, §3
Data set [3] deals with 4242Eμ-myc/Bcl-2 lymphomas. Put plainly: In vivo therapy assay (Kaplan-Meier survival). The arrangement: species or system C57BL/6 mice. Conditions: 5.6 mg/kg i.v. every 4 d, four doses. How it is done: as §1, §2, §3
Data set [4] relates to 102Eμ-myc/Bcl-2 lymphomas. Nature of the data set: In vivo therapy assay (Kaplan-Meier survival). Details: species or system C57BL/6 mice. Conditions: 5.6 mg/kg i.v. every 4 d, four doses. The protocol:
as §1, §2, §3

For another data set, the system named is 229Eμ-myc lymphomas. Nature of the data set: In vivo therapy assay (Kaplan-Meier survival). Conditions: 5.6 mg/kg i.v. every 4 d, four doses; vehicle 20 days; P<0.0001. The arrangement: species or system C57BL/6 mice. The protocol:
as §1, §2, §3

The subject of data set [5] is 4242Eμ-myc lymphomas. Nature of the data set: In vivo therapy assay (Kaplan-Meier survival). The arrangement: species or system C57BL/6 mice. Conditions: 5.6 mg/kg i.v. every 4 d, four doses; vehicle 19 d; P<0.0003. The protocol: as §1, §2, §3
A further data set relates to 102Eμmyc lymphomas. Nature of the data set: In vivo therapy assay (Kaplan-Meier survival). Details: species or system C57BL/6 mice. Conditions: 5.6 mg/kg i.v. every 4 d, four doses; vehicle 14 d; P<0.0001. The protocol:
as §1, §2, §3

The subject of data set [6] is 4242Eμ-myc lymphomas. Put plainly: In vitro cell death analysis (parental control of the Bcl-XL experiment). In kind it is cell-based, mouse. How it is done:
(§4) To determine if increased expression of Bcl-XL could confer resistance to romidepsin, 4242Eμ-myc/Bcl-XL lymphomas were produced and tested for sensitivity to HDACi.
(§5) Eμ-myc lymphoma cells (5×10^5/mL) were incubated in the presence of the indicated compounds for 20 h in 1 mL cell culture medium in 24-well plates (Greiner Bio-One). Viability of cells as measured by trypan blue exclusion assay, propidium iodide uptake, Annexin V staining, cell cycle analysis, or tetramethylrhodamine ethyl ester staining were done as described (Lindemann et al., Proc. Nat. Acad. Sci. USA 104:8071-8078, 2007).

Data set [7] relates to 229Eμ-myc/Bcl-2 lymphomas. Nature of the data set: In vitro cell death analysis, time course. It counts as cell-based, mouse.
From the text: The primary function of prosurvival Bcl-2 proteins is to inhibit the activity of Bak and Bax proteins and thereby protect the mitochondrial membrane from damage (Cory et al., Nat. Rev. Cancer 2:647-656, 2002). To determine if the induction of apoptosis mediated by romidepsin in 4242Eμ-myc/Bcl-2 and 229Eμ-myc/Bcl-2 lymphomas was via perturbation of the mitochondrial membrane or through some other mechanism, HDACi-induced mitochondrial outer membrane permeabilization (MOMP) was quantitated by staining with tetramethylrhodamine ethyl ester (Molecular Probes).
Next, the cell cycle profiles of Eμ-myc/Bcl-2 lymphomas treated with oxamflatin and romidepsin over 3 days were assessed.
as §5

Data set [8] can be described thus: Maximum tolerated dose in lymphoma-bearing mice. Conditions: i.v. once every 4 days for a total of four injections. The protocol: For in vivo apoptosis assays, C57BL/6 mice were injected with Eμ-myc lymphomas (5×10^5 cells per animal) and after 10 to 15 days on which lymph nodes became well-palpable romidepsin (5.6 mg/kg) was administered i.v. After the indicated time points, mice were sacrificed and cells were harvested from brachial lymph nodes for fluorescence-activated cell sorting-based assays to measure apoptotic signaling (Lindemann et al., Proc. Nat. Acad. Sci. USA 104:8071-8078, 2007). To assess therapeutic efficacy of romidepsin, C57BL/6 mice were injected with Eμ-myc lymphomas of the indicated genotypes i.v. (5×10^5 cells per animal). Peripheral WBC counts were then monitored until they exceeded 13×10^3/μL (Sysmex Hematology Analyzer K-1000) and romidepsin was administered at 5.6 mg/kg i.v. once every 4 days for a total of four injections. […] Mice in the control cohort received the corresponding amount of vehicle. Cohorts consisted of 8 to 11 mice each, 2 to 3 independently derived lymphomas per genotype. Peripheral WBC counts and body weights were recorded weekly. On signs of major distress or when lymphomas were relapsing as indicated by enlarged brachioaxial lymph nodes, mice were euthanized and a necropsy was done. For analysis of therapeutic efficacy, tumor-induced mortality “events” were recorded. […]

A further data set has as its system Eμ-myc lymphomas. Put plainly: In vivo therapy assay (survival). Details: species or system C57BL/6 mice. Conditions: 5.6 mg/kg i.v. every 4 d, four doses. The protocol: as §2
For in vivo apoptosis assays, C57BL/6 mice were injected with Eμ-myc lymphomas (5×10^5 cells per animal) and after 10 to 15 days on which lymph nodes became well-palpable romidepsin (5.6 mg/kg) was administered i.v. After the indicated time points, mice were sacrificed and cells were harvested from brachial lymph nodes for fluorescence-activated cell sorting-based assays to measure apoptotic signaling (Lindemann et al., Proc. Nat. Acad. Sci. USA 104:8071-8078, 2007). To assess therapeutic efficacy of romidepsin, C57BL/6 mice were injected with Eμ-myc lymphomas of the indicated genotypes i.v. (5×10^5 cells per animal). Peripheral WBC counts were then monitored until they exceeded 13×10^3/μL (Sysmex Hematology Analyzer K-1000) and romidepsin was administered at 5.6 mg/kg i.v. once every 4 days for a total of four injections. […] Mice in the control cohort received the corresponding amount of vehicle. Cohorts consisted of 8 to 11 mice each, 2 to 3 independently derived lymphomas per genotype. Peripheral WBC counts and body weights were recorded weekly. […] For analysis of therapeutic efficacy, tumor-induced mortality “events” were recorded. […]

For data set [9], the system named is 4242Eμ-myc/Bcl-XL lymphomas. Nature of the data set: In vitro cell death analysis of Bcl-XL overexpressing lymphomas. It counts as cell-based, mouse.
From the text: as §4
[…] Viability of cells as measured by trypan blue exclusion assay, propidium iodide uptake, Annexin V staining, cell cycle analysis, or tetramethylrhodamine ethyl ester staining were done as described (Lindemann et al., Proc. Nat. Acad. Sci. USA 104:8071-8078, 2007).

The subject of data set [10] is 229Eμ-myc/Bcl-2 lymphomas. Nature of the data set: In vivo apoptosis assay. Conditions: 5.6 mg/kg i.v.; later time points (>24 h). The arrangement: species or system C57BL/6 mice. The protocol:
as §3

For data set [11], the system named is 4242Eμ-myc/Bcl-2 lymphomas. Put plainly: In vivo apoptosis assay. The arrangement: species or system C57BL/6 mice. Conditions: 5.6 mg/kg i.v.; later time points (>24 h). How it is done:
as §3

Data set [12] has as its system 102Eμ-myc/Bcl-2 lymphomas. Put plainly: In vivo apoptosis assay. Conditions: 5.6 mg/kg i.v.; even at 48 h. Details: species or system C57BL/6 mice. The protocol: as §3
Where [13] appears, read: increasing concentrations over 24 h.

Consider “(1S,4S,10S,16E,21R)-7-[(2Z)-ethylidene]-4,21-diisopropyl-2-oxa-12,13-dithia-5,8,20,23-tetraazabicyclo[8.7.6]tricos-16-ene-3,6,9,19,22-pentanone [Romidepsin]”, for which the results for the “survival of mice compared with vehicle-treated mice” value (in data set [1]; in [3]; in the data set on Eμ-myc lymphomas) were “significantly extended the survival”, “significantly extended the survival” and “significantly extended”, respectively. Besides, the median survival in data set [1] (vehicle 18 d, P<0.0001) was determined as 30 days; with 226Eμ-myc lymphomas, 19.5 days; in [2] (vehicle 16 d, P=0.86), 16 days; in data set [3] (vehicle 12 d, P<0.0001), 22.5 days; in [4] (vehicle 11 d, P<0.07), 14.5 days; in the data set on 229Eμ-myc lymphomas, 30 days. Also, the median survival with 4242Eμ-myc lymphomas [5] came to 28 days; in the data set with 102Eμmyc lymphomas, 22 days. Further, the “therapeutic benefit (survival)” value in data set [2] and in [4] was “little or no therapeutic benefit” in each case. Also, the “plasma membrane integrity and mitochondrial function” value in the data set with 4242Eμ-myc lymphomas [6] (setting [13]) was “dose-dependent loss of plasma membrane integrity and mitochondrial function”; in [9] (setting [13]), “unaffected”. Besides, the “cell cycle analysis: DNA fragmentation” value in the data set on 4242Eμ-myc lymphomas [6] (increasing doses) is recorded as “DNA fragmentation occurred”. In addition, the “cell killing in time course” value in the data set on 4242Eμ-myc lymphomas [6] (parental Eμ-myc lymphomas, within the first 24 h, 3 nmol/L romidepsin or 0.1 μmol/L oxamflatin) is “effectively killed”; in data set [7] (3.0 nmol/L, up to 72 h), “could kill”. For the same substance, the “DNA fragmentation (sub-G1) indicative of apoptosis” value in data set [7] (over 3 days, data not shown) was “increase in the percentage of cells showing DNA fragmentation”. Also, in data set [8], the maximum tolerated dose was found to be 5.6 mg/kg. Besides, in data set [9] (increasing doses), the cell cycle analysis entry was “arrested in the G1 phase”. Also, the apoptosis in vivo entry in data set [10] was “did undergo apoptosis at later time points”; in data set [11] it was “did undergo apoptosis at later time points”; in data set [12], “remained insensitive”.
